Assay results as given in patent publication US20090111836A1, “Angular Pyranocoumarins, Process for Preparation and Uses Thereof” (CITY UNIVERSITY OF HONG KONG, priority 2007, published 2009).
“Also recorded” adds a separate entry of the source.

Experiments:
P-gp [1] = molecular target: P-gp (Homo sapiens, UniProt P08183); test: Hoechst 33342 efflux assay, HepG2-DR; format: cell-based; parameters: KB V1, HepG2-DR and K562-DR cell expressed P-gp at high level when compared with parental drug sensitive cells thereof; endogenous in cells; host or cells: HepG2-DR (doxorubicin-maintained multidrug resistant subline of HepG2)
P-gp (Homo sapiens, UniProt P08183), sequence (P08183 whole entry): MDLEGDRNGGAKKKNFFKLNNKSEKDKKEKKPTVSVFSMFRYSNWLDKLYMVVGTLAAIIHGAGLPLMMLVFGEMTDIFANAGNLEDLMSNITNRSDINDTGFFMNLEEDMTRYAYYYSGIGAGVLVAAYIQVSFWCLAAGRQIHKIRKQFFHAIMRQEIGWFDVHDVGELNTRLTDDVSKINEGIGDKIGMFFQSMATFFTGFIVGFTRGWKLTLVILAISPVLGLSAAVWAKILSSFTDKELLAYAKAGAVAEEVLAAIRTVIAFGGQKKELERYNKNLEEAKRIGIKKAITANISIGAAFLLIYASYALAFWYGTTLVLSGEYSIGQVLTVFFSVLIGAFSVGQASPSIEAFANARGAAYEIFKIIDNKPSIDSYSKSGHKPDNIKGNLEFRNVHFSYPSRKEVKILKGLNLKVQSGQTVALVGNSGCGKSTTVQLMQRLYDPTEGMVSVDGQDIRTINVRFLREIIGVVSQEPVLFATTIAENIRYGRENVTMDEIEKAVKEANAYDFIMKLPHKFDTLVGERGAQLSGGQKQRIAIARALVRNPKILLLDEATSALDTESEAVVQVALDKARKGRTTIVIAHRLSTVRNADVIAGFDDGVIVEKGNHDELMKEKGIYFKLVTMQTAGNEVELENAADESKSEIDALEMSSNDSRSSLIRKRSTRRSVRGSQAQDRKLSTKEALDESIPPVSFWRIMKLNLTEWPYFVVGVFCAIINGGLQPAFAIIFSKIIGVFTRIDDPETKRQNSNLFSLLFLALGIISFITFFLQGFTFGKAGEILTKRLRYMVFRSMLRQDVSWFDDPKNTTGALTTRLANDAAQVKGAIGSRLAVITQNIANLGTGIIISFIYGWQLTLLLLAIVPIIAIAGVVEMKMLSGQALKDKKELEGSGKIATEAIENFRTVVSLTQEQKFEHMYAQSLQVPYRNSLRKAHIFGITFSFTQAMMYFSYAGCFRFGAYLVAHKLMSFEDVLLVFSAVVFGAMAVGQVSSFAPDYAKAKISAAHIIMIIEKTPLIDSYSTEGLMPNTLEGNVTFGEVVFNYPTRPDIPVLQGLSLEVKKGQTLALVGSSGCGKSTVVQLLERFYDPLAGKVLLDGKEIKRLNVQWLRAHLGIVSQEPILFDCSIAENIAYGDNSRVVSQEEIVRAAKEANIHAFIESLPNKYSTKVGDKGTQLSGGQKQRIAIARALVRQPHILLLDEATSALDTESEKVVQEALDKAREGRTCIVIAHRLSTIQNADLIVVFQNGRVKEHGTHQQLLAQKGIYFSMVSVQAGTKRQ
Experimental: Relative amount of intracellular H33342 (%)=100×(FS−F0)/F0
(Fs: cellular fluorescence intensity of H33342 in the presence of a testing drug; F0: cellular fluorescence intensity of H33342 in the absence of any P-gp modulator).
1.4 Hoechst 33342 transport test: HepG2-DR Cells (5×10^4 cells in 100 μL, medium per well) were seeded in 96-well plate and incubated overnight to permit cell attachment. The medium was replaced with fresh medium containing 20 μg/mL Hoechst 33342 and cells were incubated at 37° C. for 1 hour. Cells were then washed with 100 μL ice-cold PBS twice. New medium containing the test compound of various concentrations was added and cells were further incubated at 37° C. for 1 hour. Cells were washed with ice-cold PBS twice and cellular fluorescence intensity was measured at λex=365 nm (λem=460 nm) by a BMG FLUOstar OPTIMA Microplate Reader. Inhibitory effect of the test compound on Hoechst 33342 efflux was expressed as the percentage increase of retained Hoechst 33342 in cells.

P-gp [2] = test: Immunoblotting analysis of P-gp expression, HepG2-DR; format: cell-based, human; conditions: 4 μM, 72 hours
Experimental: Immunoblotting analysis of P-gp expression: cells were treated with 4 μM of cis-DMDCK, 4 μM of cis-DMDBK, 4 μM of trans-DMDCK, or 4 μM of trans-DMDBK for 72 hours. Treated cells were collected and mixed well in ice-cold lysis buffer (50 mM Tris pH7.4, 100 mM NaCl, 2 mM EDTA, 1% sodium deoxycholate, 0.1% SDS, 1% triton X-100, 2 mM PMSF, 1% aprotinin) for 30 minutes and then centrifuged to get the total protein. Protein concentration was determined using Bradford assay. In this experiment, 50 μg total protein was separated by 8% SDS-PAGE and electro-transferred to nitrocellulose membranes. The membrane was blocked by 5% skim milk/0.1% Tween-20/TBS (10 mM Tris pH7.5, 100 mM NaCl), and then incubated with anti-P-pg antibody for 1 hour, followed by horseradish-peroxidase-conjugated secondary antibody for another 1 hour. Protein bands were detected by the ECL method.

HepG2-DR cells = test: Cell cycle distribution by flow cytometry (doxorubicin-induced G2/M arrest), HepG2-DR; format: cell-based, human; conditions: HepG2-DR; for Cell cycle distribution, G0/G1 / Cell cycle distribution, G2/M / Cell cycle distribution, S / Cell cycle distribution, SubG1: 48 h; for Concentration of test compound that reduced the effective doxorubicin concentration (G2/M arrest) from 50 to 1 μM: combination with doxorubicin
Experimental: 1.2 Instruments: FACSCAN flow cytometry (Becton Dickinson Immunocytometry Systems, San Jose, Calif.), the obtained data were analyzed using the software of Macintosh CellQuest.
1.3 Cell lines: HepG2, HepG2-DR.
1.4 Drug treatment: HepG2 and HepG2-DR cells were respectively treated with each of cis-DMDCK, cis-DMDBK, trans-DMDCK, trans-DMDBK and doxorubicin for 48 hours, or treated respectively with the combination of doxorubicin and one of cis-DMDCK, cis-DMDBK, trans-DMDCK, trans-DMDBK for 48 hours.
1.5 Treatment and detection of sample cells: after washed twice by ice-cold PBS, the cells were fixed with 70% ethanol at −20° C. overnight. The fixed cells were washed by PBS once and resuspended in 1 mL of PBS containing 100 μg/mL RNAase A and incubated at 37° C. for 30 minutes. Finally, propidium iodide solution (final concentration is 40 μg/mL,) was added to bind with DNA and incubated at room temperature for 5-10 minutes. Cells were analyzed by FACSCAN flow cytometry immediately.

K562-DR cells = test: Reversal of multidrug resistance (fold decrease of anticancer drug IC50), K562-DR; format: cell-based, human; conditions: 4 μM test compound
Experimental: Cells and cell culture: cell lines used in the experiments are human hepatoma cell line (HepG2), human leukemia cell line (K562), human epidermoid carcinoma cell line (KB-3-1) and their multidrug resistant sublines HepG2-DR, K562-DR. and KB V1. The culture conditions for all cells are following: at 37° C. and 5% CO2), KB-3-1 and KBV1 were cultured in MEM medium containing 10% fetal bovine serum and 100 U/mL antibiotics; K562, K562-DR, HepG2, HepG2-DR were cultured in RPMI-1640 medium containing 10% fetal bovine serum and 100 U/mL, antibiotics. For maintaining the phenotypic characteristics of multidrug resistance, 1.2 μM and 0.1 μM doxorubicin were respectively added into the mediums of HepG2-DR and K562-DR; 200 ng/mL vinblastine was added into the medium of KBV1. Drug resistant cells were grown in drug free medium for at least 7 days before test.
Each growth inhibition experiment must be repeated three times and results are expressed as mean±standard deviation (SD). Solvents and media were included as blank control.
In MTT assay, cells are inoculated at 5000 cells/well and are incubated overnight. Drug treatment lasts for 68 h. MTT (5 mg/ml in PBS) is added to each well (1:10 dilution). After incubation for 4 hour at 37° C., 5% CO2, 100 μl of stop solution (10% SDS-50% isobutanol-0.01N HCl) is added to each well to stop the reaction. Viable cell number is estimated by correlating to OD at 570 nm.
1. Materials and methods: the same with I.
To evaluate the multidrug resistance reversing ability of (±)-Praeruptorin A derivatives, IC50 values of anticancer drugs in the presence and absence of cis-DMDCK, cis-DMDBK, trans-DMDCK, or trans-DMDBK at certain concentration were determined in HepG2-DR, K562-DR and KB V1 cells. The fold decrease of IC50 value of an anticancer drug in certain cell line achieved by a test compound is calculated (fold decrease=IC50 of an anti-tumor drug alone/IC50 of the anti-tumor drug in combination with the test compound) and is used for evaluating the ability of the test compound to reduce drug resistance. The larger the fold decrease value is, the stronger its ability to reverse drug resistance is. The results were average values of three repetitive tests. Verapamil (P-glycoprotein modulator) is the positive control.

[3] = 1 μM doxorubicin + 0.5 μM test compound
[4] = 1 μM doxorubicin + 1 μM test compound
[5] = 1 μM doxorubicin + 2 μM test compound

Structure (SMILES): COc1ccc(C(=O)O[C@@H]2c3c(ccc4ccc(=O)oc34)OC(C)(C)[C@@H]2OC(=O)c2ccc(OC)c(OC)c2)cc1OC (racemic) [cis-DMDBK, (±)-3′-O,4′-O-bis(3,4-dimethoxybenzoyl)-cis-khellactone]
- Highest increase of cellular Hoechst 33342 fluorescence (P-gp [1]; 10 μM): 200%
- Change in P-gp (MDR1) expression level (P-gp [2]): no detectable alteration; also recorded: not observed
- Cell cycle distribution, G0/G1 (HepG2-DR cells; [3]): 35.82 ± 2.26%
- Cell cycle distribution, G2/M (HepG2-DR cells; [3]): 52.79 ± 5.64%
- Cell cycle distribution, S (HepG2-DR cells; [3]): 6.44 ± 0.77%
- Cell cycle distribution, SubG1 (HepG2-DR cells; [3]): 2.92 ± 1.09%
- Cell cycle distribution, G0/G1 (HepG2-DR cells; [4]): 13.52 ± 1.36%
- Cell cycle distribution, G2/M (HepG2-DR cells; [4]): 73.03 ± 1.89%
- Cell cycle distribution, S (HepG2-DR cells; [4]): 5.85 ± 3.09%
- Cell cycle distribution, SubG1 (HepG2-DR cells; [4]): 4.08 ± 0.81%
- Cell cycle distribution, G0/G1 (HepG2-DR cells; [5]): 3.74 ± 0.76%
- Cell cycle distribution, G2/M (HepG2-DR cells; [5]): 79.01 ± 6.01%
- Cell cycle distribution, S (HepG2-DR cells; [5]): 6.86 ± 2.57%
- Cell cycle distribution, SubG1 (HepG2-DR cells; [5]): 7.13 ± 6.57%
- Effect on cell cycle by itself (HepG2-DR cells; 4 μM alone): no effect
- Cell cycle distribution, G0/G1 (HepG2-DR cells; 4 μM alone): 52.36 ± 0.98%
- Cell cycle distribution, G2/M (HepG2-DR cells; 4 μM alone): 34.36 ± 0.42%
- Cell cycle distribution, S (HepG2-DR cells; 4 μM alone): 7.66 ± 3.22%
- Cell cycle distribution, SubG1 (HepG2-DR cells; 4 μM alone): 2.27 ± 0.49%
- Concentration of test compound that reduced the effective doxorubicin concentration (G2/M arrest) from 50 to 1 μM (HepG2-DR cells): 2 µM
- Reversing parameter: fold decrease of IC50, verapamil (K562-DR cells): 105.8 ± 51.1 fold
- Reversing parameter: fold decrease of IC50 of Doxorubicin (K562-DR cells): 18.9 ± 7.9 fold
- Reversing parameter: fold decrease of IC50 of Puromycin (K562-DR cells): 21.8 ± 3.1 fold
- Reversing parameter: fold decrease of IC50 of Vinblastine (K562-DR cells): 75.6 ± 21.3 fold

Structure (SMILES): COc1ccc(/C=C/C(=O)O[C@@H]2c3c(ccc4ccc(=O)oc34)OC(C)(C)[C@@H]2OC(=O)/C=C/c2ccc(OC)c(OC)c2)cc1OC (racemic) [cis-DMDCK, (±)-3′-O,4′-O-bis(3,4-dimethoxycinnamoyl)-cis-khellactone]
- Highest increase of cellular Hoechst 33342 fluorescence (P-gp [1]; 5 μM): 200%
- Change in P-gp (MDR1) expression level (P-gp [2]): no detectable alteration; also recorded: not observed
- Cell cycle distribution, G0/G1 (HepG2-DR cells; [3]): 8.46 ± 1.63%
- Cell cycle distribution, G2/M (HepG2-DR cells; [3]): 79.79 ± 4.56%
- Cell cycle distribution, S (HepG2-DR cells; [3]): 6.52 ± 1.76%
- Cell cycle distribution, SubG1 (HepG2-DR cells; [3]): 4.35 ± 0.59%
- Cell cycle distribution, G0/G1 (HepG2-DR cells; [4]): 4.39 ± 1.50%
- Cell cycle distribution, G2/M (HepG2-DR cells; [4]): 81.42 ± 6.02%
- Cell cycle distribution, S (HepG2-DR cells; [4]): 5.36 ± 3.13%
- Cell cycle distribution, SubG1 (HepG2-DR cells; [4]): 5.59 ± 4.35%
- Cell cycle distribution, G0/G1 (HepG2-DR cells; [5]): 4.51 ± 0.45%
- Cell cycle distribution, G2/M (HepG2-DR cells; [5]): 77.12 ± 3.36%
- Cell cycle distribution, S (HepG2-DR cells; [5]): 8.87 ± 4.04%
- Cell cycle distribution, SubG1 (HepG2-DR cells; [5]): 6.40 ± 5.54%
- Effect on cell cycle by itself (HepG2-DR cells; 4 μM alone): no effect
- Cell cycle distribution, G0/G1 (HepG2-DR cells; 4 μM alone): 52.10 ± 0.61%
- Cell cycle distribution, G2/M (HepG2-DR cells; 4 μM alone): 33.20 ± 2.05%
- Cell cycle distribution, S (HepG2-DR cells; 4 μM alone): 8.38 ± 4.24%
- Cell cycle distribution, SubG1 (HepG2-DR cells; 4 μM alone): 2.25 ± 0.51%
- Concentration of test compound that reduced the effective doxorubicin concentration (G2/M arrest) from 50 to 1 μM (HepG2-DR cells): 1 µM
- Reversing parameter: fold decrease of IC50, verapamil (K562-DR cells): 169.9 ± 39.4 fold
- Reversing parameter: fold decrease of IC50 of Doxorubicin (K562-DR cells): 28.8 ± 8.9 fold
- Reversing parameter: fold decrease of IC50 of Puromycin (K562-DR cells): 38.8 ± 8.9 fold
- Reversing parameter: fold decrease of IC50 of Vinblastine (K562-DR cells): 138.7 ± 39.6 fold
